# Legend:
# Type in all cases: biochemical
# [1] = biological target: T1, HDAC2 (Homo sapiens, UniProt Q92769); experiment: HDAC2 inhibition, modified Fluor-de-Lys assay; details: 3 h pre-incubation, […] enzyme, 40 μM substrate BML-KI104; read-out: HDAC-2 IC50
# T1 construct: Full length human HDAC2-FLAG was expressed in baculovirus infected Sf9 cells; FLAG (C); host or cells: baculovirus infected Sf9 cells
# Method: (§1) Human HDAC Enzyme Inhibitor FLUOR-DE-LYS Assay Materials
# (§2) Recombinant human HDAC1, HDAC2, and HDAC3/SMRT heterodimer were prepared by Merck Research Laboratories. […] The eluted protein was then passed over an anti-HDAC1 immunoaffinity column to remove any complexes containing HDAC1. […]
# (§3) The histone deacetylase activities of HDAC1, HDAC2, HDAC3, HDAC6, and HDAC8 were measured in modified Fluor-de-Lys assays in 384-well format. In this assay, HDAC enzymes are initially incubated with an ε-acetyl (or -trifluoroacetyl)-L-lysine-containing substrate with a C-terminal amide having aminomethylcoumarin as the amine component. HDACs cleave the ε-acetyl group, rendering the resulting product susceptible to AMC cleavage by trypsin. The released AMC is then detected by its fluorescence.
# (§4) The HDAC 1, 2 assays employed buffer A, which contained 20 mM HEPES, pH 8.0, 1 mM MgCl2, 137 mM NaCl, 2.7 mM KCl, 0.05% BSA. The HDAC3/SMRT assay employed buffer B, consisting of 20 mM HEPES, pH 8.0, 1 mM MgCl2, 50 mM NaCl, 2.7 mM KCl, 0.05% BSA, 0.005% Tween 20, and 10 μM IP4. The HDAC6 assay employed buffer C, consisting of 20 mM HEPES, pH 8.0, 1 mM MgCl2, 137 mM NaCl, 2.7 mM KCl, 0.5 mM TCEP (Calbiochem) and 0.05% BSA. The HDAC8 assay employed buffer D, consisting of 20 mM HEPES, pH 8.0, 1 mM MgCl2, 100 mM NaCl, 20 mM KCl, 0.1% n-octyl-β-D-glucoside (Anatrace, Maumee, Ohio) and 0.05% BSA. All steps were performed at room temperature (23° C.). The assay was performed by pre-incubating serial dilutions of test compounds with the target HDAC prior to initiation with substrate. Each compound was titrated in a 10-point dose response, using a 1:3 fold dilution scheme, with 0.15 ul of solution added by ECHO555 to the plate, followed by the addition of 20 μl of the appropriate HDAC isoform diluted in appropriate assay buffer. […] Final conditions used for each assay were: 1. HDAC 1, 0.3 nM total enzyme, 20 μM substrate BML-KI104; 2. HDAC 2, 1.5 nM total enzyme, 40 μM substrate BML-KI104; 3. HDAC 3/SMRT, 0.3 nM total enzyme, 20 μM substrate BML-KI104; 4. HDAC 6, 1.3 nM total enzyme, 2.5 μM substrate BML-KI104; 5. HDAC 8, 1.3 nM total enzyme, 200 μM substrate BML-KI178; the final high dose of test compound was 30 μM. For potent compounds, 900 nM was used as the final high dose. The reactions were stopped and developed by addition of 30 ul of HDAC developer solution containing a saturating level of HDAC inhibitor as follows: 1.
# [2] = biological target: T2, HDAC3/SMRT heterodimer (Homo sapiens, UniProt O15379); experiment: HDAC3/SMRT inhibition, modified Fluor-de-Lys assay; details: 3 h pre-incubation, 0.3 nM enzyme, 20 μM substrate BML-KI104, read-out: HDAC-3 IC50
# T2 construct: FLAG (C)
# Method: as §1, §2, §3, §4
# [3] = biological target: T3, HDAC1 (Homo sapiens, UniProt Q13547); experiment: HDAC1 inhibition, modified Fluor-de-Lys assay; details: 3 h pre-incubation, 0.3 nM enzyme, 20 μM substrate BML-KI104; read-out: HDAC-1 IC50
# T3 construct: FLAG (C)
# Method: as §1, §2, §3, §4
# T1 sequence (Q92769 whole entry): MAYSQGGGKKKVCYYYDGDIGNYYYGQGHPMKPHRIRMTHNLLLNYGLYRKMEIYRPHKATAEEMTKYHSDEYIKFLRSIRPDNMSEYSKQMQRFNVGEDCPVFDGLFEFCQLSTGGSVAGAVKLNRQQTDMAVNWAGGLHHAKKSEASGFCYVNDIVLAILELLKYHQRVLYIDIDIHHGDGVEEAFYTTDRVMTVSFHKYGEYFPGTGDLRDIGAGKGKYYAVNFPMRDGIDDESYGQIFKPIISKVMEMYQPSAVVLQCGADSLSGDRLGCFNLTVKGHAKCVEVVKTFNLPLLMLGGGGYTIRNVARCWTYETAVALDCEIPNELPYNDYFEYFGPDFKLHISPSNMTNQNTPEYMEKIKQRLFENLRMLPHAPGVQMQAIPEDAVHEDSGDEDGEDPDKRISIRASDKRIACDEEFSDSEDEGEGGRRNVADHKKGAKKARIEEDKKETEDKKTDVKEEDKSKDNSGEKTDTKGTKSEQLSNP
# T3 sequence (Q13547 whole entry): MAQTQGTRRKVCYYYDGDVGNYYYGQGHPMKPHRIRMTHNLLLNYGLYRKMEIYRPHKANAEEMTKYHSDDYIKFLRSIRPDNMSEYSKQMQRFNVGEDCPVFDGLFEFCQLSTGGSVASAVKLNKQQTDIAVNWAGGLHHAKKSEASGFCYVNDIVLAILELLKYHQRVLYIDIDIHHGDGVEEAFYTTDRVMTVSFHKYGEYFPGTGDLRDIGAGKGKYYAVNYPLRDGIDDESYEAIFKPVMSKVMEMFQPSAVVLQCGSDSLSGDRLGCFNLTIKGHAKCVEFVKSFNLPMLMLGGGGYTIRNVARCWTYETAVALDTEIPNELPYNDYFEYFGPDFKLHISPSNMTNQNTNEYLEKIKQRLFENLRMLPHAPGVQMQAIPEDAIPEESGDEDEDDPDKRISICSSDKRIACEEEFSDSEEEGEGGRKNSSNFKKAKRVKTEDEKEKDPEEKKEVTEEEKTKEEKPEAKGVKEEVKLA
# T2 sequence (O15379 whole entry): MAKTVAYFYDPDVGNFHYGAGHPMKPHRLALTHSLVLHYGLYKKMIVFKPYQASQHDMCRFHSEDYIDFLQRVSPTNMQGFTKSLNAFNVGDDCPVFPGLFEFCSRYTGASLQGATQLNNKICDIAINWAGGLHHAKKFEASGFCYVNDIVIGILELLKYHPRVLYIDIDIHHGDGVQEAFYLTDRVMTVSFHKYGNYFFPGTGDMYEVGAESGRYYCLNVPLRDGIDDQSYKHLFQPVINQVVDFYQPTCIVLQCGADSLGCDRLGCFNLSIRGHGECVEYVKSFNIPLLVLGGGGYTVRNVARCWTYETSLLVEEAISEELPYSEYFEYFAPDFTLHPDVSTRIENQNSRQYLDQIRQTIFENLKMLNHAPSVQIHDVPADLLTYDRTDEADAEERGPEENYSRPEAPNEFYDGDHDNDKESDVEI
# T2 sequence (Q9Y618 1-899 partner limits assumed): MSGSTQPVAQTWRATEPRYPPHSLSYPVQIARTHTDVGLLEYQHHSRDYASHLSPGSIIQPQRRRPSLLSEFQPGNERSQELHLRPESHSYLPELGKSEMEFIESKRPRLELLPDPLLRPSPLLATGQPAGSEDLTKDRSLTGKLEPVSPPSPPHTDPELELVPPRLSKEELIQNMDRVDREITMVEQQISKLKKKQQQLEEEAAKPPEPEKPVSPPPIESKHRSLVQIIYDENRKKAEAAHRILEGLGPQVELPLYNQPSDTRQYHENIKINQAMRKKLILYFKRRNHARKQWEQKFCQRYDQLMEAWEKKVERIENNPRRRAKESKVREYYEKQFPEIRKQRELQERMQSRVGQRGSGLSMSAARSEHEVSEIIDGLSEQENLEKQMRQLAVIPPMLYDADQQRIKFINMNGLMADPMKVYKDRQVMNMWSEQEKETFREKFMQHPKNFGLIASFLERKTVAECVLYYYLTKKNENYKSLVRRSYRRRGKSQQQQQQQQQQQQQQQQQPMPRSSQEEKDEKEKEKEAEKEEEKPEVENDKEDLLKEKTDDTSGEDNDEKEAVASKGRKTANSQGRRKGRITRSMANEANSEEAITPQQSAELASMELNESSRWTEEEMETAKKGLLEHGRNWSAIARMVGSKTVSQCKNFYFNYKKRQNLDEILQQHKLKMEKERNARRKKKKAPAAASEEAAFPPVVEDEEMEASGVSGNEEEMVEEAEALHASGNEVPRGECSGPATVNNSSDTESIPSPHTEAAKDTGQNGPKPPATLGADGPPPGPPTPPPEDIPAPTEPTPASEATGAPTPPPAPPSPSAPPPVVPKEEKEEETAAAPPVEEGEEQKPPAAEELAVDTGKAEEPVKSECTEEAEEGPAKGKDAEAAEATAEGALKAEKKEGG
Molecule,IC50 [1],IC50 [2],IC50 [3]
"CCC(=O)CCCCC[C@H](NC(=O)[C@H]1CC12CCN(CC)CC2)c1[nH]c2nc1C(=O)NCCC/C=C\c1cccc-2c1 [Compound 14, (1S)-6-ethyl-N-{(1S)-7-oxo-1-[(11Z)-6-oxo-3,7,18-triazatricyclo[11.3.1.1~2,5~]octadeca-1(17),2(18),4,11,13,15-hexaen-4-yl]nonyl}-6-azaspiro[2.5]octane-1-carboxamide]",572 nM,113 nM,133 nM
"CCC(=O)CCCCC[C@H](NC(=O)[C@H]1CC12CCN(CC)CC2)c1[nH]c2nc1C(=O)NCCC/C=C/c1cccc-2c1 [Compound 15, (1S)-6-ethyl-N-{(1S)-7-oxo-1-[(11E)-6-oxo-3,7,18-triazatricyclo[11.3.1.1~2,5~]octadeca-1(17),2(18),4,11,13,15-hexaen-4-yl]nonyl}-6-azaspiro[2.5]octane-1-carboxamide]",223 nM,18 nM,21 nM
"CCC(=O)CCCCCC1NC(=O)C2CC2N2CCC(CCCCCn3c(=O)ccc4cc(ccc43)-c3cnc1o3)CC2 [Compound 7, (11S,4S)-4-(6-oxooctyl)-61,62-dihydro-3-aza-5(2,5)-oxazola-6(6,1)-quinolina-12(4,1)-piperidina-1(1,2)-cyclopropanadodecaphane-62,2-dione]",260 nM,57 nM,16 nM
"CCC(=O)CCCCC[C@@H]1NC(=O)[C@H]2CC23CCN(CCCCCCCCn2ccc4cc(c(OC)cc4c2=O)-c2cnc1[nH]2)CC3 [Compound 5, (1^1S,4S)-6^7-methoxy-4-(6-oxooctyl)-6^1,6^2-dihydro-5^1H-3-aza-6(6,2)-isoquinolina-15(4,1)-piperidina-5(2,5)-imidazola-1(1,2)-cyclopropanapentadecaphane-6^1,2-dione]",0.31 nM,0.13 nM,0.11 nM
"(11S,4S)-4-(6-oxooctyl)-61,62-dihydro-3-aza-5(2,5)-oxazola-6(6,1)-quinolina-12(4,1)-piperidina-1(1,2)-cyclopropanadodecaphane-62,2-dione [Compound 8]",287 nM,130 nM,42 nM
"CCC(=O)CCCCC[C@@H]1NC(=O)[C@H]2CC23CCN(CCCOCCCn2ccc4cc(ccc4c2=O)-c2cnc1[nH]2)CC3 [Compound 12, (3S,6S)-6-(6-oxooctyl)-22-oxa-5,8,18,26,33-pentaazahexacyclo[24.2.2.1˜7,10˜0.1˜11,15˜0.1˜14,18˜0.0˜1,3˜]tritriaconta-7,9,11(32),12,14,16-hexaene-4,31-dione]",8.5 nM,0.32 nM,0.33 nM

# — patent publication US11976069B2, “Inhibitors of histone deacetylase useful for the treatment or prevention of HIV infection” (Merck Sharp & Dohme LLC, priority 2019, dated 2024)
